# Activity calls are given as the source filed them.
# Experiments:
# [1] = microbe, parasite or virus in culture; format: functional; conditions: Mycobacterium tuberculosis
# Vero = assay: cells; format: functional; conditions: Chlorocebus sabaeus
# [2] = viability of HCT116 lacking mutant beta-catenin – cell-based, human colon tumor, dose response (AID 1045); format: functional;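 note: HCT116 colon tumor cells with beta catenin knocked out; cells exposed to compound for 60 hours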
# [3] = viability of PTEN-deleted HCT116 cells – cell-based, HCT116 PTEN knockout, dose response (AID 1047); format: functional;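 note: HCT116 colon tumor cells with PTEN knocked out; cells exposed to compound for 60 hours before readout; potency for loss of cell viability measured by luminescence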
# [4] = viability of uninfected HEp-2 cells – cell-based, HTS, cytotoxicity control for RSV inhibitor project, dose response (AID 2410); format: functional; conditions: human respiratory syncytial virus
# Cytochrome P450 3A4 = Cytochrome P450 3A4 (Homo sapiens, UniProt P08684); conditions: Potency;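 note: confirmatory qHTS run detecting inhibitors and substrates of CYP3A4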
# [5] = Luminescence Cell-Based Dose Response HTS to Identify Inhibitors of 5'UTR Stem-Loop Driven Prion Protein mRNA Translation in H4 Neuroglioblastoma Cells. [Related pubchem assays: 1827 (Project Summary), 1813 (Primary HTS)]; format: functional
# [6] = luciferase reporter signal suppression in cells – H4 neuroglioma cells, luminescence, dose response (AID 1990); format: functional, cell-based
# [7] = alpha-synuclein stem-loop luciferase translation blockers – H4 neuroglioma cells, luminescence, confirmation (AID 1988); format: functional, cell-based
# [8] = biological target: T1, DNA repair protein RAD52 homolog (Homo sapiens, UniProt P43351); format: functional, biochemical
# T1 sequence (P43351 whole entry): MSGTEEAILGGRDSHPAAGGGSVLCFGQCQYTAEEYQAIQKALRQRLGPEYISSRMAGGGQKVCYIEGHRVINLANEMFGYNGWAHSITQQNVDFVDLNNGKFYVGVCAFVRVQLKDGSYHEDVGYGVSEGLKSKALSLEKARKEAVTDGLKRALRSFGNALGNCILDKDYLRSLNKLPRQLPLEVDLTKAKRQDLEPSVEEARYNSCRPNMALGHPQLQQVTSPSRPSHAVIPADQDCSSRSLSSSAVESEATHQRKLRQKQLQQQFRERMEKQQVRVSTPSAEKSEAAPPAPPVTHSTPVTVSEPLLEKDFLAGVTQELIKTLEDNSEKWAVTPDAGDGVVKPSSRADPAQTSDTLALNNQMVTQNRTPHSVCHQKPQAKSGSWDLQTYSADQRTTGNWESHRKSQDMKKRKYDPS
# [9] = biological target: T2, Rac GTPase-activating protein 1 (Homo sapiens, UniProt Q9H0H5); assay: blockers of MgcRacGAP-driven Rac1 GTP hydrolysis – biochemical, ADP Hunter fluorescence, primary and confirmatory, confirmation (AID 624330); format: functional
# T2 sequence (Q9H0H5 whole entry): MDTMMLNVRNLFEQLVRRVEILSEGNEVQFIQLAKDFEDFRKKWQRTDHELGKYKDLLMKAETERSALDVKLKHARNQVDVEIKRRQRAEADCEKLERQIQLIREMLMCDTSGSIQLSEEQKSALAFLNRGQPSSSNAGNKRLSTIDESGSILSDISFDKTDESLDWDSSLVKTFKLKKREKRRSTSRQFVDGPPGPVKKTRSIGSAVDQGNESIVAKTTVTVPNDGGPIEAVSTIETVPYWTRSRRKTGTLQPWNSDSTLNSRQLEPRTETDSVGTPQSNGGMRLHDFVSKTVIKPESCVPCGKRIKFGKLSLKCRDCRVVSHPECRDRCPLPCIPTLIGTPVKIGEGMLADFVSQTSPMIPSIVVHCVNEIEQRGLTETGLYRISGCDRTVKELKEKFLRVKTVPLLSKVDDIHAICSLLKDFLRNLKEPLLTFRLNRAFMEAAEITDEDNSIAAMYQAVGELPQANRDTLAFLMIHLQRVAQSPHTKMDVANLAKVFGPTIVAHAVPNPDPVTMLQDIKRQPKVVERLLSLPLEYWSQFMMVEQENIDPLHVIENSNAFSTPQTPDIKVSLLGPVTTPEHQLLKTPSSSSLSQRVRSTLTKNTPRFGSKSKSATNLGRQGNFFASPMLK
# [10] = biological target: Eukaryotic translation initiation factor 4E (Mus musculus, UniProt P63073); assay: blockers of eIF4G binding by eIF4E – biochemical, TR-FRET, dose response (AID 855); format: functional;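 note: potency for disrupting eIF4E binding to eIF4GI seen as loss of FRET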
# cells = format: functional
# [11] = Trypanosoma cruzi growth suppression in host cells – NIH3T3 host cells, beta-gal luminescence, confirmation (AID 2044); format: functional, cell-based;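 note: intracellular parasites grown in NIH/3T3 mouse fibroblasts as host cells; luminescent beta-galactosidase reporter signal from transgenic T. cruzi replicating inside host cells; inhibitors lower the luminescence signal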
# [12] = NIH3T3 cell viability loss – ATP luminescence, mouse fibroblasts, counter-screen, dose response (AID 2010); format: functional, cell-based;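 note: cells exposed to compound for about 90 hours before reading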
# [13] = biological target: Glyceraldehyde-3-phosphate dehydrogenase (Homo sapiens, UniProt P04406)
# [14] = tested on: Streptococcus sp. 'group A'; assay: Streptococcus pyogenes SK(-)GAS viability under kanamycin – luminescence, BacTiterGlo, confirmation, counter-screen for streptokinase expression inhibitor project, dose response (AID 1900); format: functional, organism-based
# Streptokinase A = biological target: T3, Streptokinase A (Streptococcus pyogenes serotype M1, UniProt P10520); assay: viability-normalized secreted streptokinase activity reduction – plasminogen activation absorbance, OD405, dose response (AID 1914); format: functional, Streptococcus pyogenes M1 GAS;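 note: secreted streptokinase activity via plasminogen activation per viability signal from cell pellet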
# T3 sequence (P10520 whole entry): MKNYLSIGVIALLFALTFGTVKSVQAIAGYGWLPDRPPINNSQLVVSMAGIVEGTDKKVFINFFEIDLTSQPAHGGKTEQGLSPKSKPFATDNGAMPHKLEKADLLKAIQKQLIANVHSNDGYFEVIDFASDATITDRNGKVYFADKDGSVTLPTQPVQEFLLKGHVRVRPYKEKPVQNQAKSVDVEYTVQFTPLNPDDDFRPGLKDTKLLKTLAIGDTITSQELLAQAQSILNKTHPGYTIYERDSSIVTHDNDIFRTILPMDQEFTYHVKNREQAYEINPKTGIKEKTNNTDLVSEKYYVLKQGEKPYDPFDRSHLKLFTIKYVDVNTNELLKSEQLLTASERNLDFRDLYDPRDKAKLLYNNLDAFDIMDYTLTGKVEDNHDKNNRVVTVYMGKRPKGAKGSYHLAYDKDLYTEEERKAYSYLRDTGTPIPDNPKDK
# Streptococcus = assay: GAS UMAA2166 growth inhibition – luminescence, BacTiterGlo, counter-screen for streptokinase expression inhibitor project, dose response (AID 1915); format: functional, organism-based;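 note: potency for reduction of bacterial viability or growth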
# Cytochrome P450 2D6 = Cytochrome P450 2D6 (Homo sapiens, UniProt P10635);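 note: CYP2D6 member of a cytochrome P450 panel assay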
# [15] = DRD fibroblast viability loss – cell-based, non-viral oncogenic, luminescence, dose response (AID 1934); format: functional; conditions: Homo sapiens
# BJ [16] = assay: cells; format: functional, cell-based; conditions: Homo sapiens
# BJ [17] = assay: BJ-TERT-LT-ST fibroblast viability loss – cell-based, RAS-independent, luminescence, dose response (AID 1935); format: functional; conditions: Homo sapiens;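 note: BJ fibroblasts immortalized with TERT plus LT and ST oncogenes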
# BJ [18] = assay: BJ-TERT fibroblast viability loss – cell-based, RAS-independent, luminescence, dose response (AID 1933); format: functional; conditions: Homo sapiens
# [19] = biological target: T4, Heat shock factor protein 1 (Mus musculus, UniProt P38532); assay: enhancement of HSF1-driven luciferase signal – cell-based, NIH3T3, luminescence, dose retest, confirmation (AID 435004); format: functional;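 note: stress induced by proteasome inhibitor MG132 added 30 min after compound; luciferase reporter driven by HSF1 response element in NIH3T3 cells; actives raise luminescence as potentiators of the MG132 stress response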
# T4 sequence (P38532 whole entry): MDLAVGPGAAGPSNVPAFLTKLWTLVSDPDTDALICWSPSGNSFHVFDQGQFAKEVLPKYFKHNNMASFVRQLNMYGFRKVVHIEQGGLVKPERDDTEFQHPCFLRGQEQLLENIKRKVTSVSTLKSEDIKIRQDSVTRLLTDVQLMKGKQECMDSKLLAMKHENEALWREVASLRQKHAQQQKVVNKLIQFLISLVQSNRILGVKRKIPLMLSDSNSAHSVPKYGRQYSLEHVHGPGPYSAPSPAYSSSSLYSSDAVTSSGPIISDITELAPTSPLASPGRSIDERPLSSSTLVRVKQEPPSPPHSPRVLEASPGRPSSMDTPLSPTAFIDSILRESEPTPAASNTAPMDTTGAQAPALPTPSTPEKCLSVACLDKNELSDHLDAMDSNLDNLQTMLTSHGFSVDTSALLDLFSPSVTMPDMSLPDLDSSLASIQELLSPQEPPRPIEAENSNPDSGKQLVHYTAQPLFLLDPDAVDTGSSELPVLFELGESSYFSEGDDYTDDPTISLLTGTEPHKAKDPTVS
# [20] = biological target: T5, Ubiquitin-conjugating enzyme E2 N (Homo sapiens, UniProt P61088); format: functional;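 note: Dose-response confirmation in a TR-FRET assay detecting UBC13-driven polyubiquitin chain formation, inhibition measured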
# T5 sequence (P61088 whole entry): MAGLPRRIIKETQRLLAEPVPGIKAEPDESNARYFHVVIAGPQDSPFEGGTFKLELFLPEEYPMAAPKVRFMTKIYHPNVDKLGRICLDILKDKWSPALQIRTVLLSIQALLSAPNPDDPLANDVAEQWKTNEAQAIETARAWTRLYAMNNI
# Sequence of Cytochrome P450 3A4 (P08684 whole entry): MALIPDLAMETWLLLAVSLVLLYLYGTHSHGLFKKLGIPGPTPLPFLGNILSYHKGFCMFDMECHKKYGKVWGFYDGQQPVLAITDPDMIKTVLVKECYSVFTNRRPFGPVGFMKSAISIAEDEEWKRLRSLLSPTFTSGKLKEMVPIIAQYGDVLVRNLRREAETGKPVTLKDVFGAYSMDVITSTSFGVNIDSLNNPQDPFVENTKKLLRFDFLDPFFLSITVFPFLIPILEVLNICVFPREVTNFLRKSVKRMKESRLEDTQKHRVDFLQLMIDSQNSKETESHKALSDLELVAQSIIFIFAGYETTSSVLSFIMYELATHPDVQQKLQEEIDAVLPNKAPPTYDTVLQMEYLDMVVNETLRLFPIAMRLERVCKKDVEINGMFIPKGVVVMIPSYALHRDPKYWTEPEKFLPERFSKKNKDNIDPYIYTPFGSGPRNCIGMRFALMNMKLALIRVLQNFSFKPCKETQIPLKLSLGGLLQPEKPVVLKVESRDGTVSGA
# Sequence of Cytochrome P450 2D6 (P10635 whole entry): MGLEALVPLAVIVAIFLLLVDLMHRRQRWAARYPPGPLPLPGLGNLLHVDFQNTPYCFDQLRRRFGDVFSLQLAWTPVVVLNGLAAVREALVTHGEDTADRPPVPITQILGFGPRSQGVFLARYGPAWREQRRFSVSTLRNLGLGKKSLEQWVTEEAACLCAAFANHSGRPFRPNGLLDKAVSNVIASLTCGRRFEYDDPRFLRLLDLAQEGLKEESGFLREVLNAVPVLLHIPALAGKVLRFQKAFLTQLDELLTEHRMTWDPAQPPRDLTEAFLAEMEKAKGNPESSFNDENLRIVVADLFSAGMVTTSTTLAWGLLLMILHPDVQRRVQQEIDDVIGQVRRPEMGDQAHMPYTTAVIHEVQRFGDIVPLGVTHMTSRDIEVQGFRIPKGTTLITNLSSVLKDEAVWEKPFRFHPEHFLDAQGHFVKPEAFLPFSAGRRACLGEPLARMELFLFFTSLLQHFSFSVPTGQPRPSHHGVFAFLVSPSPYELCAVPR
# Sequence of Eukaryotic translation initiation factor 4E (P63073 whole entry): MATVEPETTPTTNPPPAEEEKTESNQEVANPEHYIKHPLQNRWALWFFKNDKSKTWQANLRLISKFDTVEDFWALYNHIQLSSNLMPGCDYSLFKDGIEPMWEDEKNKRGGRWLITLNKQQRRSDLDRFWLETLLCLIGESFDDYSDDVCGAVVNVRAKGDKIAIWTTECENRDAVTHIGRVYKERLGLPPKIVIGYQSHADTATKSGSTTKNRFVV
# Sequence of Glyceraldehyde-3-phosphate dehydrogenase (P04406 whole entry): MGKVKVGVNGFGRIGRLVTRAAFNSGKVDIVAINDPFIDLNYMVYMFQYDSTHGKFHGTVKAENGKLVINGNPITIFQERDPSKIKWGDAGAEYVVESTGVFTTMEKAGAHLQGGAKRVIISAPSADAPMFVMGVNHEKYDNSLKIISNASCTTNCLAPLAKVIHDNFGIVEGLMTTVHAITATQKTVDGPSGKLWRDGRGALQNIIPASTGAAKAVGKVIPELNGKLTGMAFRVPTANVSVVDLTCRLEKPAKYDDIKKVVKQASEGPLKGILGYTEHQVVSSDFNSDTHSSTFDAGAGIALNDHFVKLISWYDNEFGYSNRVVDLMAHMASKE
smiles,measurement,setting,value
CC(C)(C)NC(=O)[C@@H]1C[C@@H]2CCCC[C@@H]2CN1C[C@@H](O)[C@H](Cc1ccccc1)NC(=O)[C@H](CC(N)=O)NC(=O)c1ccc2ccccc2n1,CC50,[1],> 40 µM (active)
C=CCn1c(SCC(=O)c2[nH]c(C)c(C(=O)OCC)c2C)nc2scc(-c3ccc(OC)cc3)c2c1=O,CC50,Vero,6.78 µM (active)
same,EC50,[2],1.41 µM (active)
same,EC50,[3],1.49 µM (active)
CN(CCNC(=O)c1cc2c(=O)n(C)c3ccccc3c2n1C)Cc1ccccc1,EC50,[2],23 µM (active)
same,EC50,[3],31.5 µM (active)
COc1ccc(OC)c(Nc2nc(-c3sc(C)nc3C)cs2)c1,CC50,[4],20.4 µM (active)
same,CC50,[1],> 40 µM (active)
CNC(=O)C1(C)C=CC2(CCCCC2)N1C(=O)OC (centres undefined),AC50,Cytochrome P450 3A4,25.1 µM (inconclusive)
CC(C)c1ccc2[nH]c(O)c(N=NC(=O)c3cccc(S(=O)(=O)Nc4ccc(Cl)cc4)c3)c2c1,EC50,[5],> 120 µM (not active)
same,EC50,[6],> 120 µM (not active)
same,EC50,[7],> 120 µM (not active)
CC1CCCCN1CC(=O)Nc1ccc(N2CCCCCC2)cc1 (centres undefined),AC50,[8],17.4 µM (active)
same,IC50,[9],101 µM (active)
CCOC(=O)c1c(NC(=S)NC(=O)/C=C/c2cccs2)sc(C)c1C,EC50,[2],21.4 µM (active)
same,EC50,[3],21.2 µM (active)
CC1=CC(=O)NP(=O)(Oc2ccc3ccccc3c2)N1 (centres undefined),IC50,[10],31.2 µM (active)
same,IC50,[9],80.7 µM (active)
CCC1=C2CC[C@H]3C(=O)NC(=O)[C@H]3[C@H]2[C@@]2(C)C(=O)N(CC3CC3)C(=O)N2C1=O,AC50,Cytochrome P450 3A4,31.6 µM (inconclusive)
O=C(Cc1ccc(N2CCNC2=O)cc1)N1CCCC(Nc2cccc(F)c2)C1 (centres undefined),EC50,[5],2.72 µM (active)
same,EC50,[6],9.37 µM (inconclusive)
same,EC50,[7],5.11 µM (active)
CCCCCCc1ccc(N2C[C@H](C)[C@@H](CC(=O)NCc3ccccc3)C2=O)cc1,CC50,[1],> 40 µM (active)
CCN(CC)c1cccc(O)c1,AC50,Cytochrome P450 3A4,31.6 µM (inconclusive)
COc1cccc(-c2cnc(NCc3cc(Cl)ccc3O)n2C)c1,CC50,[1],> 40 µM (active)
Cc1nc2ccc(NC(=O)c3ccc([N+](=O)[O-])cc3[N+](=O)[O-])cc2s1,IC50,cells,1.85 µM (active)
same,EC50,[11],0.654 µM (active)
same,EC50,[12],> 60 µM (not active)
CCN(CC)CCN(C(=O)c1ccc(C(=O)c2ccccc2)cc1)c1nc2c(OC)cccc2s1,AC50,[8],17.2 µM (active)
COc1cc2c(cc1OC)C(c1ccccc1N)=NCC2,AC50,[8],18.6 µM (active)
COc1cccc(N2CCN(C3=C(Cl)C(=O)N(c4ccc([N+](=O)[O-])cc4)C3=O)CC2)c1,IC50,[13],> 50 µM (inconclusive)
COC(=O)CNC(=O)C1(CC(C)C)C=CCN1C(C)=O (centres undefined),AC50,Cytochrome P450 3A4,25.1 µM (inconclusive)
CCOc1ccc(OC(=O)c2ccc3c(=O)n4c(nc3c2)CCC4)cc1,IC50,cells,0.12 µM (active)
CC1(C)OC2CC3C4CC(F)C5=CC(=O)C=C[C@@]5(C)[C@@]4(F)C(O)C[C@@]3(C)[C@]2(C(=O)CO)O1 (some centres undefined),AC50,Cytochrome P450 3A4,39.8 µM (inconclusive)
CCCCC1CCC(c2nc(-c3ccccn3)no2)CC1 (centres undefined),EC50,[14],16.1 µM (active)
same,EC50,Streptokinase A,> 150 µM (not active)
same,EC50,Streptococcus,21 µM (active)
same,EC50,[5],> 60 µM (not active)
same,EC50,[6],9.12 µM (inconclusive)
same,EC50,[7],2.95 µM (active)
same,AC50,Cytochrome P450 2D6,25.1 µM (inconclusive)
Cc1ccc(NC(=O)CCc2c[nH]c3ccccc23)nc1,EC50,[15],17.7 µM (active)
same,EC50,BJ [16],50.4 µM (active)
same,EC50,BJ [17],> 150 µM (inconclusive)
same,EC50,BJ [18],12.6 µM (active)
Cc1ccc(N(Cc2ccc(C(=O)Nc3ccccc3C(=O)NCc3ccco3)cc2)S(C)(=O)=O)cc1C,EC50,[19],> 260 µM (inactive)
same,EC50,[5],> 120 µM (not active)
same,EC50,[6],17.5 µM (active)
same,EC50,[7],22.9 µM (active)
Cc1ccc(S(=O)(=O)Oc2ccc(/N=N/c3ccc(-c4ccc(/N=N/c5c(O)ccc6cc(S(=O)(=O)O)cc(S(=O)(=O)O)c56)c(C)c4)cc3C)cc2)cc1,AC50,Cytochrome P450 3A4,25.1 µM (inconclusive)
COc1cc(/C=C2\N=C(c3ccccc3)NNC2=O)cc(OC)c1OC,EC50,[5],9.91 µM (active)
same,EC50,[6],> 120 µM (not active)
same,EC50,[7],8.22 µM (active)
CCOC(=O)N1CCN(C(=O)C(=O)Nc2sc3c(c2C(N)=O)CC(C)(C)OC3)CC1,IC50,[20],> 20 µM (inactive)
O=C(CN1C(=O)c2ccccc2S1(=O)=O)N1CCc2ccccc2C1,EC50,[5],21.4 µM (active)
same,EC50,[6],25.5 µM (active)
same,EC50,[7],12.6 µM (active)
CC(/C=N/NC(=O)c1cc(-c2ccc(Cl)cc2)nc2ccccc12)=C\c1ccco1,EC50,[15],2.58 µM (inconclusive)
same,EC50,BJ [16],2.73 µM (active)
same,EC50,BJ [17],22.4 µM (inconclusive)
same,EC50,BJ [18],2.07 µM (active)
CNC(C)C(=O)NC(C(=O)N1CCCC1C(=O)Nc1ccc2[nH]ccc2c1)C(C)C (centres undefined),AC50,[8],7.54 µM (active)
COc1ccccc1/C=C/C(=O)c1cccs1,AC50,Cytochrome P450 3A4,25.1 µM (inconclusive)
COc1ccc(/N=c2\cc(-c3ccc(O)cc3)oc3ccccc23)cc1,CC50,[1],32.9 µM (active)

# From ChEMBL document CHEMBL1201862, “PubChem BioAssay data set” (2004)
